According to patent US12310975B2, “Modulators of BCL6 proteolysis and associated methods of use” (Arvinas Operations, Inc., priority 2019, dated 2025):
Like-named read-outs stand apart in the source and are kept apart here.

Target: BCL6 (Homo sapiens (Human), UniProt P41182)
Assay: Immunofluorescence high content imaging of BCL6 degradation in T47D cells
Assay type: cell-based
How it was run: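 T47D cells were treated 3 days at 37 °C with an 11-point 3-fold dilution series (top 0.1 or 1 μM), then fixed, permeabilized and immunostained for BCL6 with Alexa-488 secondary, CellMask and Hoechst. BCL6 signal was imaged at 10×, 4 fields/well, with top-hat smoothing.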

IC50 [nM] | Dmax (T47D cells) [%] | IC50 (T47D cells) [nM] | SMILES | other results
 | 50 to 70 | < 10 | CCn1c(=O)c(OCC(=O)NC)cc2cc(Nc3nc(N4CCC(OCC5CCN(c6cccc7c6C(=O)N(C6CCC(=O)NC6=O)C7=O)CC5)CC4)ncc3Cl)ccc21 (stereo not drawn) [compound 330, 2-{[6-({5-chloro-2-[4-({1-[2-(2,6-dioxopiperidin-3-yl)-1,3-dioxo-2,3-dihydro-1H-isoindol-4-yl]piperidin-4-yl}methoxy)piperidin-1-yl]pyrimidin-4-yl}amino)-1-ethyl-2-oxo-1,2-dihydroquinolin-3-yl]oxy}-N-methylacetamide] | 
 | ≥ 70 | 10 to 50 | CNC(=O)COc1cc2cc(Nc3nc(N4CCN(CC5CCN(c6cc7c(cc6OC)C(=O)N(C6CCC(=O)NC6=O)C7=O)CC5)CC4)ncc3Cl)ccc2n(C(C)C)c1=O (stereo not drawn) [compound 404, 2-{[6-({5-chloro-2-[4-({1-[2-(2,6-dioxopiperidin-3-yl)-6-methoxy-1,3-dioxo-2,3-dihydro-1H-isoindol-5-yl]piperidin-4-yl}methyl)piperazin-1-yl]pyrimidin-4-yl}amino)-2-oxo-1-(propan-2-yl)-1,2-dihydroquinolin-3-yl]oxy}-N-methylacetamide] | 
 | ≥ 70 | < 10 | CNC(=O)COc1cc2cc(Nc3nc(N4CCC(OC5CC6(C5)CN(c5ccc(C(=O)NC7CCC(=O)NC7=O)c(OC)c5)C6)CC4)ncc3Cl)ccc2n(C(C)C)c1=O (stereo not drawn) [compound 429, 4-[6-({1-[5-chloro-4-({3-[(methylcarbamoyl)methoxy]-2-oxo-1-(propan-2-yl)-1,2-dihydroquinolin-6-yl}amino)pyrimidin-2-yl]piperidin-4-yl}oxy)-2-azaspiro[3.3]heptan-2-yl]-N-(2,6-dioxopiperidin-3-yl)-2-methoxybenzamide] | 

The remaining lines, values behind:

SMILES | IC50 [nM] | Dmax (T47D cells) [%] | IC50 (T47D cells) [nM] | other results
CNC(=O)COc1cc2cc(Nc3nc(N4CCC(CN5CCC(c6ccc7c(c6)C(=O)N(C6CCC(=O)NC6=O)C7=O)CC5)CC4)ncc3Cl)ccc2n(C)c1=O (stereo not drawn) [compound 289, 2-{[6-({5-chloro-2-[4-({4-[2-(2,6-dioxopiperidin-3-yl)-1,3-dioxo-2,3-dihydro-1H-isoindol-5-yl]piperidin-1-yl}methyl)piperidin-1-yl]pyrimidin-4-yl}amino)-1-methyl-2-oxo-1,2-dihydroquinolin-3-yl]oxy}-N-methylacetamide] | 10 to 50 |  |  | Dmax (T47D): ≥ 70%
CN1CC[C@@H](Oc2cc3cc(Nc4nc(N5CCC(CN6CCN(c7ccc8c(c7)C(=O)N(C7CCC(=O)NC7=O)C8=O)CC6)CC5)ncc4Cl)ccc3n(C)c2=O)C1=O (stereo partly drawn) [compound 258, 5-(4-((1-(5-chloro-4-((1-methyl-3-(((R)-1-methyl-2-oxopyrrolidin-3-yl)oxy)-2-oxo-1,2-dihydroquinolin-6-yl)amino)pyrimidin-2-yl)piperidin-4-yl)methyl)piperazin-1-yl)-2-(2,6-dioxopiperidin-3-yl)isoindoline-1,3-dione] | ≥ 100 |  |  | 
CNC(=O)COc1cc2cc(Nc3nc(N4CCC(OCCOCCOCCOCCOCCOCCNc5cccc6c5C(=O)N(C5CCC(=O)NC5=O)C6=O)CC4)ncc3Cl)ccc2n(C)c1=O (stereo not drawn) [compound 81, 2-((6-((5-chloro-2-(4-((17-((2-(2,6-dioxopiperidin-3-yl)-1,3-dioxoisoindolin-4-yl)amino)-3,6,9,12,15-pentaoxaheptadecyl)oxy)piperidin-1-yl)pyrimidin-4-yl)amino)-1-methyl-2-oxo-1,2-dihydroquinolin-3-yl)oxy)-N-methylacetamide] |  |  |  | DC50 (class symbols A-D, read-out: EC50 (nM)*): > 100 nM
CNC(=O)COc1cc2cc(Nc3nc(N4CCN(CC5CCN(c6cccc(C(=O)NC7CCC(=O)NC7=O)c6F)CC5)CC4)ncc3Cl)ccc2n(C(C)C)c1=O (stereo not drawn) [compound 296, 3-[4-({4-[5-chloro-4-({3-[(methylcarbamoyl)methoxy]-2-oxo-1-(propan-2-yl)-1,2-dihydroquinolin-6-yl}amino)pyrimidin-2-yl]piperazin-1-yl}methyl)piperidin-1-yl]-N-(2,6-dioxopiperidin-3-yl)-2-fluorobenzamide] | < 10 |  |  | Dmax (T47D): ≥ 70%
